In publication PMC11578313, “Miniaturized Modular Click Chemistry‐enabled Rapid Discovery of Unique SARS‐CoV‐2 M^pro Inhibitors With Robust Potency and Drug‐like Profile” (Advanced Science, 2024):
Where two headings read alike, the source gives them in different places.

Experiments:
Wild‐type rgSARS‐CoV‐2 = assay: microbe, parasite or virus in culture; type: cell-based, SARS‐CoV‐2
[1] = system: rgSARS‐CoV‐2‐M^pro/T21I+E166V; type: cell-based, SARS‐CoV‐2; details: read-out: EC50 ± SD, rgSARS‐CoV‐2‐M^pro/T21I +E166V
[2] = system: rgSARS‐CoV‐2‐M^pro/L50F+E166V; type: cell-based, SARS‐CoV‐2; details: read-out: EC50 ± SD, rgSARS‐CoV‐2‐M^pro/L50F+E166V
[3] = system: SARS‐CoV‐2 (hCoV‐19/Korea/KCDC06/2020, wild type); assay: microbe, parasite or virus in culture; type: cell-based
[4] = Severe acute respiratory syndrome coronavirus 2, Calu-3; read-out: EC50 ± SD, Wild‐type rgSARS‐CoV‐2

| SMILES | EC50 (Wild‐type rgSARS‐CoV‐2; [4]) | EC50 [1] | EC50 [2] | EC50 ([3]; Severe acute respiratory syndrome coronavirus 2, Calu-3, Gamma, Delta, and Omicron, read-out: EC50 against several SARS‐CoV‐2 variants) | EC50 ([3]; Severe acute respiratory syndrome coronavirus 2, wild‐type, gamma, delta, and omicron, Calu‐3, read-out: EC50 against the original strain and its circulating variants) | EC50 (Wild‐type rgSARS‐CoV‐2; Severe acute respiratory syndrome coronavirus 2, Calu-3, read-out: EC50 ± SD, Wild‐type rgSARS‐CoV‐2) |
| --- | --- | --- | --- | --- | --- | --- |
| Cc1cncc(C(=O)N2C[C@H]3CC[C@@H](C2)N3C(c2cccc(F)c2)c2cccc(F)c2)c1 [AA‐625, reference compound] | 779 ± 173 nM | 3410 ± 821 nM | 5710 ± 664 nM | – | – | – |
| Cc1cncc(C(=O)N2C[C@H]3CC[C@@H](C2)N3[C@H](c2cccc(F)c2)c2cn(CCc3ccsc3)nn2)c1 [Compound C5N17B] | < 46 nM | 260 ± 29 nM | 150 ± 19 nM | 130 to 260 nM | 119 to 260 nM | – |
| CC(C)(C)[C@H](NC(=O)C(F)(F)F)C(=O)N1C[C@H]2[C@@H]([C@H]1C(=O)N[C@H](C#N)C[C@@H]1CCNC1=O)C2(C)C [Nirmatrelvir, reference compound] | – | > 100000 nM | > 100000 nM | – | – | 2770 ± 33 nM |
| Cc1cncc(C(=O)N2C[C@H]3CC[C@@H](C2)N3C(c2cccc(F)c2)c2cn(CCc3ccsc3)nn2)c1 (some centres unmarked) [Compound C5N17] | 441 ± 32 nM | 1470 ± 123 nM | 966 ± 40 nM | – | – | – |
